# Data taken from US20150004148A1, “METHODS AND COMPOSITIONS FOR INCREASING RNA INTERFERENCE” (DEVGEN N.V., priority 2008, published 2015).
# What was measured:
# Format in all cases: in vivo
# [1] = system: Colorado potato beetle (Leptinotarsa decemlineata) larvae; assay: Colorado potato beetle (CPB) larvae bioassay on artificial diet, test solution applied topically to the diet
# Method: The bioassay was typically performed in an 48-well-plate containing 500 μl of artificial diet per well. Thirty μl of test solution consisting of 5 μl Ld105 (SEQ ID NO 1) dsRNA (starting concentration 10 ng/μl) and 25 μl of dextran sulfate (of varying concentrations in Milli-Q water) was applied topically to the diet and the diet left to dry for about two hours in the laminar flow at room temperature. One 2nd stage CPB larva was placed in each well. Per treatment, 24 insects were tested. The plates were incubated in the insect rearing chamber at 25° C. and ±50% RH, with a photoperiod of 16 hours light/8 hours dark. Mortality was scored over the course of the experiment. The Kaplan-Meier estimator was used to plot the survival curves and the survival curves were compared using the logrank χ^2 test.
# In a CPB bioassay (set-up described in Example 1), target Ld105 dsRNA (SEQ ID NO:1) was tested at one quantity (50 ng) in the presence of fucoidan (average Mw±20 kDa; Sigma cat. no. F5631) at different amounts ranging from 50 ng to 50 μg per larva.
# In a CPB bioassay (set-up described in Example 1), target Ld105 dsRNA (SEQ ID NO:1) was tested at different amounts ranging from 1 pg to 1 μg in the presence of 50 μg dextran sulfate per larva.
# In a CPB bioassay (set-up described in Example 1), target Ld105 dsRNA (SEQ ID NO:1) was tested at one quantity (50 ng) in the presence of heparin (MP Biomedicals cat. no. 194114) at different amounts ranging from 50 ng to 50 μg per larva.
# In a CPB bioassay (set-up described in Example 1), target Ld105 dsRNA (SEQ ID NO:1) was tested at one quantity (50 ng per larva) in the presence of 50 μg chondroitin sulfate (Sigma cat. no. C3788) or hyaluronic acid (Sigma cat. no. 53747).
# Preparation of the recombinant bacteria is described in the international publication WO 2007/080127 (see pages 55-56).
# In one CPB bioassay (set-up described in Example 1), different target dsRNAs (SEQ ID NO:1, 2, 3, 4; Ld105 dsRNA=SEQ ID NO:1, Ld013=SEQ ID NO: 2, Ld009=SEQ ID NO: 3 and Ld248=SEQ ID NO: 4) were tested at one quantity (100 ng) in the presence of dextran sulfate (50 μg).
# [2] = system: nematode Caenorhabditis elegans; assay: C. elegans soaking assay, counting of life stages; details: Example 13
# Method: The effects of dextran sulfate on the RNAi-induced phenotypes of a non-insect species, namely, the nematode Caenorhabditis elegans, were tested in a soaking assay. Wild-type worms were chunked from a stock plate and adults were bleached to obtain a well-staged population. The assay was set up in a V-shaped 96-well plate, with each well containing 20 μl of solution comprising 50 ng/μl target rps-14 dsRNA (SEQ ID NO:6), various concentrations of dextran sulfate (0 mg/ml, 0.25 mg/ml, 0.50 mg/ml and 1 mg/ml) and 50 first-larval stage nematodes. Each treatment was performed in triplicate. The plate containing the worms was incubated at 25° C. for overnight soaking After 17 hours, the worms were transferred to 3.5 cm agar-plates seeded with OP50 E. coli and incubated at 20° C. for a further 2 days. After this growing period, the assay was assessed by counting the different life stages for all treatments.
# [3] = system: Colorado potato beetle (Leptinotarsa decemlineata) larvae; assay: CPB sequential feeding assay (priming with dextran sulfate, then dsRNA) on artificial diet; details: Example 11; DS/DS treatment, 50 μg dextran sulfate
# Method: In one CPB bioassay, target Ld105 dsRNA (SEQ ID NO:1) was tested at one quantity (1 μg) following a short exposure to dextran sulfate only. The bioassay set-up was similar to that described in Example 1, except that the larvae were first fed diet with topically applied dextran sulfate (DS; 50 μg), or water, for two full days before transferring them to fresh diet with topically applied Ld105 dsRNA, dextran sulfate or water only, for the remainder of the assay.
# [4] = system: Colorado potato beetle (Leptinotarsa decemlineata) larvae; assay: Alternative CPB bioassay using treated potato leaf discs; details: Example 10; 50 μg dextran sulfate alone on leaf discs
# Method: An alternative bioassay was used using potato leaf discs rather than artificial diet as food source for CPB. Discs of approximately 0.9 cm in diameter (or 0.64 cm^2) were cut out off leaves of 4- to 6-week-old potato plants using a suitably sized cork borer. Treated leaf discs were prepared by applying 2 μl of a solution comprising 100 ng target Ld105 dsRNA (SEQ ID NO:1) and 50 μg dextran sulfate on the adaxial leaf surface. The leaf discs were allowed to dry and placed individually in 24 wells of a 48-well multiwell plate. A single second-larval stage CPB was placed into each well and the plate covered with a plastic lid. Twenty-four larvae were tested per treatment. […] After 24 hours, the larvae were transferred to fresh, untreated leaf discs and placed in the chamber for a further 24 hours. This was repeated once after which the CPB larvae were transferred on to artificial diet where they were kept until the end of the bioassay.
# [5] = Example 6, heparin or dextran sulfate alone, no dsRNA
# [6] = 50 ng/μl rps-14 dsRNA, alone or plus 1 mg/ml dextran sulfate, 17 hours soaking, then 2 days growing
substance,measurement,setting,value
dextran sulfate [dextran sulfate (±8 kDa)],toxicity to larvae,"[1]; Example 1, dextran sulfate (±8 kDa) alone, 50 ng to 50 μg per larva, no dsRNA",Very little or no toxicity
same,toxicity to larvae,"[1]; Example 4, 50 μg dextran sulfate (±8 kDa) alone",Very little or no toxicity
same,toxicity to larvae,[1]; [5],Very little or no toxicity
same,toxicity to nematodes,[2]; dextran sulfate alone (data not shown),No toxicity
same,toxicity to larvae,[3],Very little or no toxicity
same,toxicity to larvae,[4],Very little toxicity
dextran sulfate [dextran sulfate (±1400 kDa)],toxicity to larvae,"[1]; Example 5, dextran sulfate (±1400 kDa) alone, 50 ng to 50 μg per larva",Very little or no toxicity
"rps-14 dsRNA: C. elegans target rps-14 double-stranded RNA, SEQ ID NO:6",number of L3 stage larvae,[2]; [6],11%
same,number of L4 stage larvae,[2]; [6],19%
same,number of adults,[2]; [6],63%
same,number of dead larvae,[2]; [6],7%
fucoidan,toxicity to larvae,"[1]; Example 2, fucoidan alone, 50 ng to 50 μg per larva",Very little or no toxicity
heparin [reference compound],toxicity to larvae,[1]; [5],Very little or no toxicity
